Results reported in US11648254B2 (Kumquat Biosciences Inc., priority 2021, dated 2023).
Where two headings read alike, the source gives them in different places.

Key:
[1] = system: MIA PaCa-2 cells (K-Ras G12C); assay: Ras-SOS cellular growth inhibition assay (CellTiter-Glo, 3D); format: cell-based
Method in brief: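 Growth read by CellTiter-Glo luminescence about 5 days after dosing with 3-fold dilutions (9 points), added one day post-seeding. Cells: MIA PaCa-2, 3D culture on ultra-low-attachment surface, medium DMEM/Ham's F12 plus 10% FCS and 2.5% horse serum; IC50 by four-parameter fit.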

SOS1 = SOS1 (Homo sapiens (Human), UniProt Q07889); assay: Ras-SOS interaction assay (HTRF); format: biochemical
Sequence of SOS1 (Q07889 564-1049): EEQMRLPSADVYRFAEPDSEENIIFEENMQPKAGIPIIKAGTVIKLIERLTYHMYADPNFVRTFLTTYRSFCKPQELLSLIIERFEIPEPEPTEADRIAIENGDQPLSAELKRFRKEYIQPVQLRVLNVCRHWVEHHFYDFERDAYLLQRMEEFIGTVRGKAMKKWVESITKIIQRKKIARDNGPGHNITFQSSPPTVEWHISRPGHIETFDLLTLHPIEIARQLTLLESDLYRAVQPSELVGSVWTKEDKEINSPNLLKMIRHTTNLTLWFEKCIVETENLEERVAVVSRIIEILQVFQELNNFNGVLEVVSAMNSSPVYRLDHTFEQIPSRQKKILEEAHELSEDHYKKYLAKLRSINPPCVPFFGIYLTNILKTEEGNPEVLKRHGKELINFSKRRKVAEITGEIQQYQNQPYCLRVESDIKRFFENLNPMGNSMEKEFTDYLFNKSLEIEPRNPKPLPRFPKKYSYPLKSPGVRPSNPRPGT

[2] = system: NCI-H1975 cells (EGFR T790M L858R); assay: EGFR-SOS cellular inhibition assay (CellTiter-Glo, 3D); format: cell-based
[3] = Homo sapiens, MIA PaCa-2, 120 h, MIA PaCa-2, 3D proliferation, about 5 days, read-out: Bio-Cell-Prolif-3D (MiaPaca2 IC50)
[4] = Homo sapiens, MIA PaCa-2, MIA PaCa-2, read-out: IC50 in inhibiting MIA PaCa-2 cell growth
[5] = K-RasG13D utilized, read-out: IC50 inhibition of SOS
[6] = K-RasG13D, read-out: IC50 value against SOS1
[7] = Homo sapiens, 120 h, NCI-H1975, 3D proliferation, about 5 days, read-out: Bio-Cell-Prolif-3D (H1975 IC50)
[8] = Homo sapiens, NCI-H1975, EGFR T790M L858R, read-out: IC50 in inhibiting growth of NCI-H1975 cell line

| Compound | IC50 [1, 3] [nM] | IC50 [1, 4] [nM] | IC50 (SOS1; [5]) [nM] | IC50 (SOS1; [6]) [nM] | IC50 [2, 7] [nM] | IC50 [2, 8] [nM] | IC50 ([1]; MIA PaCa-2, 3D proliferation, about 5 days, read-out: Bio-Cell-Prolif-3D (MiaPaca2 IC50)) [nM] | IC50 ([1]; MIA PaCa-2, read-out: IC50 in inhibiting MIA PaCa-2 cell growth) [nM] | IC50 ([2]; NCI-H1975, 3D proliferation, about 5 days, read-out: Bio-Cell-Prolif-3D (H1975 IC50)) [nM] | IC50 ([2]; NCI-H1975, EGFR T790M L858R, read-out: IC50 in inhibiting growth of NCI-H1975 cell line) [nM] |
| --- | --- | --- | --- | --- | --- | --- | --- | --- | --- | --- |
| Cc1nc(N[C@H](C)c2cccc(C(F)F)c2F)c2cc(C3CCS(=O)(=O)CC3)c(N(C)C)nc2n1 [Compound 143, (R)-4-(4-((1-(3-(difluoromethyl)-2-fluorophenyl)ethyl)amino)-7-(dimethylamino)-2-methylpyrido[2,3-d]pyrimidin-6-yl)tetrahydro-2H-thiopyran 1,1-dioxide] | ≤ 1000 | < 500 | < 100 | < 50 | ≤ 1000 | < 500 |  |  |  |  |
| Cc1nc(N[C@H](C)c2cccc(C(F)F)c2F)c2cc(C3CCS(=O)(=O)CC3)c(OCCN(C)C)nc2n1 [Compound 145, (R)-4-(4-((1-(3-(difluoromethyl)-2-fluorophenyl)-ethyl)amino)-7-(2-(dimethylamino)ethoxy)-2-methylpyrido[2,3-d]pyrimidin-6-yl)tetrahydro-2H-thiopyran 1,1-dioxide] | ≤ 1000 | < 500 | < 100 | < 50 | ≤ 1000 | < 500 |  |  |  |  |
| COc1nc2nc(C)nc(N[C@H](C)c3cccc(CC(F)F)c3F)c2cc1C1CCS(=O)(=O)CC1 [Compound 147, (R)-4-(4-((1-(3-(2,2-difluoroethyl)-2-fluorophenyl)ethyl)amino)-7-methoxy-2-methylpyrido[2,3-d]pyrimidin-6-yl)tetrahydro-2H-thiopyran 1,1-dioxide] | ≤ 1000 |  | < 100 | < 50 | ≤ 1000 | < 500 |  |  |  |  |
| COc1nc2nc(C)nc(N[C@H](C)c3cccc(CC(F)F)c3F)c2cc1N1CCN(C)CC1 [Compound 149, (R)-N-(1-(3-(2,2-difluoroethyl)-2-fluorophenyl)ethyl)-7-methoxy-2-methyl-6-(4-methylpiperazin-1-yl)pyrido[2,3-d] pyrimidin-4-amine] | ≤ 1000 | < 500 | < 100 | < 50 | ≤ 1000 | < 500 |  |  |  |  |
| COc1nc2nc(C)nc(N[C@H](C)c3cccc(C(F)F)c3F)c2cc1C1CCS(=N)(=O)CC1 (stereo partly drawn) [Compound 154, (R)-4-(4-((1-(3-(difluoromethyl)-2-fluorophenyl)ethyl)amino)-7-methoxy-2-methylpyrido[2,3-d]pyrimidin-6-yl)-1-iminohexahydro-1λ6-thiopyran 1-oxide] |  |  | < 100 | < 50 |  |  | ≤ 1000 | < 500 | ≤ 1000 | < 500 |
| COCCOc1nc2nc(C)nc(N[C@H](C)c3cccc(C(F)F)c3F)c2cc1C1CCS(=O)(=O)CC1 [Compound 157, (R)-4-(4-((1-(3-(difluoromethyl)-2-fluorophenyl)ethyl)amino)-7-(2-methoxyethoxy)-2-methylpyrido[2,3-d]pyrimidin-6-yl)tetrahydro-2H-thiopyran 1,1-dioxide] | ≤ 1000 | < 500 | < 100 | < 50 | ≤ 1000 | < 500 |  |  |  |  |
| COCCOc1nc2nc(C)nc(N[C@H](C)c3cccc(C(F)F)c3OCCOC)c2cc1C1CCS(=O)(=O)CC1 [Compound 158, (R)-4-(4-((1-(3-(difluoromethyl)-2-(2-methoxyethoxy)phenyl)ethyl)amino)-7-(2-methoxyethoxy)-2-methylpyrido[2,3-d]pyrimidin-6-yl)tetrahydro-2H-thiopyran 1,1-dioxide] | ≤ 1000 |  | < 100 |  | 1000 to 10000 |  |  |  |  |  |
| COc1nc2nc(C)nc(N[C@H](C)c3cccc(C(F)(F)C4CCN(C(C)C)CC4)c3F)c2cc1C1CCN(C(C)C)CC1 [Compound 161, (R)-N-(1-(3-(difluoro(1-isopropylpiperidin-4-yl)methyl)-2-fluorophenyl)ethyl)-6-(1-isopropylpiperidin-4-yl)-7-methoxy-2-methylpyrido[2,3-d]pyrimidin-4-amine] | ≤ 1000 | < 500 | < 100 | < 50 | ≤ 1000 | < 500 |  |  |  |  |
| COc1nc2nc(C)nc(N[C@H](C)c3cccc(C(F)(F)C4CCN(C(C)C)CC4)c3F)c2cc1N1CCN(C(C)C)CC1 [Compound 163, (R)-N-(1-(3-(difluoro(1-isopropylpiperidin-4-yl)methyl)-2-fluorophenyl)ethyl)-6-(4-isopropylpiperazin-1-yl)-7-methoxy-2-methylpyrido[2,3-d]pyrimidin-4-amine] | ≤ 1000 | < 500 | < 100 | < 50 | ≤ 1000 | < 500 |  |  |  |  |
| COc1nc2nc(C)nc(N[C@H](C)c3cccc(C(F)(F)F)c3F)c2cc1C1CCN(C(C)=O)CC1 [Compound 165, (R)-1-(4-(4-((1-(2-fluoro-3-(trifluoromethyl)phenyl)ethyl)amino)-7-methoxy-2-methylpyrido[2,3-d]pyrimidin-6-yl)piperidin-1-yl)ethan-1-one] | ≤ 1000 |  | < 100 | < 50 | ≤ 1000 | < 500 |  |  |  |  |
| COc1nc2ncnc(N[C@H](C)c3cccc(C(F)(F)F)c3F)c2cc1N1CCN(C2CCOCC2)CC1 [Compound 166, (R)-N-(1-(2-fluoro-3-(trifluoromethyl)phenyl)ethyl)-7-methoxy-6-(4-(tetrahydro-2H-pyran-4-yl)piperazin-1-yl)pyrido[2,3-d]pyrimidin-4-amine] | ≤ 1000 | < 500 | < 100 | < 50 | ≤ 1000 | < 500 |  |  |  |  |
| COc1nc2nc(C)nc(N[C@H](C)c3cccc(C(F)(F)CCC4CNC4)c3F)c2cc1C1(C#N)CC1 [Compound 172, (R)-1-(4-((1-(3-(3-(azetidin-3-yl)-1,1-difluoropropyl)-2-fluorophenyl)ethyl)amino)-7-methoxy-2-methylpyrido[2,3-d]pyrimidin-6-yl)cyclopropane-1-carbonitrile] | 1000 to 10000 |  | < 100 | < 50 | ≤ 1000 | < 500 |  |  |  |  |

The next lines start with the values.

| IC50 [1, 3] [nM] | IC50 [1, 4] [nM] | IC50 (SOS1; [5]) [nM] | IC50 (SOS1; [6]) [nM] | IC50 [2, 7] [nM] | IC50 [2, 8] [nM] | IC50 ([1]; MIA PaCa-2, 3D proliferation, about 5 days, read-out: Bio-Cell-Prolif-3D (MiaPaca2 IC50)) [nM] | IC50 ([1]; MIA PaCa-2, read-out: IC50 in inhibiting MIA PaCa-2 cell growth) [nM] | IC50 ([2]; NCI-H1975, 3D proliferation, about 5 days, read-out: Bio-Cell-Prolif-3D (H1975 IC50)) [nM] | IC50 ([2]; NCI-H1975, EGFR T790M L858R, read-out: IC50 in inhibiting growth of NCI-H1975 cell line) [nM] | Compound |
| --- | --- | --- | --- | --- | --- | --- | --- | --- | --- | --- |
| ≤ 1000 | < 500 | < 100 | < 50 | ≤ 1000 | < 500 |  |  |  |  | COc1nc2nc(C)nc(N[C@H](C)c3cccc(C(F)(F)F)c3C)c2cc1N1CCS(=O)(=O)CC1 [Compound 142, (R)-4-(7-methoxy-2-methyl-4-((1-(2-methyl-3-(trifluoromethyl)phenyl)ethyl)amino)pyrido[2,3-d]pyrimidin-6-yl)thiomorpholine 1,1-dioxide] |
| ≤ 1000 |  |  | < 50 | ≤ 1000 | < 500 |  |  |  |  | COCCOc1nc2nc(C)nc(N[C@H](C)c3cccc(C(F)F)c3F)c2cc1C1(C#N)CC1 [Compound 151, (R)-1-(4-((1-(3-(difluoromethyl)-2-fluorophenyl)ethyl)amino)-7-(2-methoxyethoxy)-2-methylpyrido[2,3-d]pyrimidin-6-yl)cyclopropane-1-carbonitrile] |
| ≤ 1000 |  | < 100 | < 50 | ≤ 1000 |  |  |  |  |  | COc1nc2ncnc(N[C@H](C)c3cccc(CC(F)F)c3F)c2cc1C1CCS(=O)(=O)CC1 [Compound 152, (R)-4-(4-((1-(3-(2,2-difluoroethyl)-2-fluorophenyl)ethyl)amino)-7-methoxypyrido[2,3-d]pyrimidin-6-yl)tetrahydro-2H-thiopyran 1,1-dioxide] |
| ≤ 1000 | < 500 | < 100 | < 50 | ≤ 1000 | < 500 |  |  |  |  | COc1nc2nc(C)nc(N[C@H](C)c3cccc(C(F)F)c3F)c2cc1C1CCS(=N)(=O)CC1 (stereo partly drawn) [Compound 153, 4-(4-(((R)-1-(3-(difluoromethyl)-2-fluorophenyl)ethyl)amino)-7-methoxy-2-methylpyrido[2,3-d]pyrimidin-6-yl)-1-iminohexahydro-1λ6-thiopyran 1-oxide] |
| 1000 to 10000 |  | < 100 | < 50 | ≤ 1000 |  |  |  |  |  | COc1nc2nc(C)nc(N[C@H](C)c3cccc(C(F)(F)F)c3F)c2cc1C1CCN(C(=O)C2CN(C)CCO2)CC1 (stereo partly drawn) [Compound 167, (4-(4-(((R)-1-(2-fluoro-3-(trifluoromethyl)phenyl)ethyl)amino)-7-methoxy-2-methylpyrido[2,3-d]pyrimidin-6-yl)piperidin-1-yl)(4-methylmorpholin-2-yl)methanone] |
| ≤ 1000 | < 500 | < 100 | < 50 | ≤ 1000 | < 500 |  |  |  |  | COc1nc2nc(C)nc(N[C@H](C)c3cccc(C(F)(F)C(C)(C)O)c3F)c2cc1N1CCS(=O)(=O)CC1 [Compound 169, (R)-4-(4-((1-(3-(1,1-difluoro-2-hydroxy-2-methylpropyl)-2-fluorophenyl)ethyl)amino)-7-methoxy-2-methylpyrido[2,3-d]pyrimidin-6-yl)thiomorpholine 1,1-dioxide] |
